Measurements: patent US20240409536A1, “COMPOUNDS AND METHODS FOR MODULATING SPLICING” (REMIX THERAPEUTICS INC., priority 2021, published 2024)

Assays:
[1] = tested on: Target C mRNA; assay: Gene panel canonical junction qPCR assay, Target C CJ mRNA decrease; type: cell-based; conditions: Homo sapiens, canonical junction qPCR, read-out: Target C IC50 (decrease in CJ mRNA levels)
How it was run: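 IC50 values describe loss of canonical-junction transcript, fitted by 4-parameter logistic to percent response derived from fixed ΔCt windows. Read-out: RT-qPCR on lysates of compound-treated K562 or A673 cells, probes overlapping the exon junction, ΔΔCt versus housekeeping gene and DMSO control.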

[2] = tested on: MYB mRNA; assay: Splicing RT-qPCR assay, MYB canonical (CJ) and alternative (AJ) junction mRNA; type: cell-based; conditions: Homo sapiens, A673 or K562 cells, 24 hours; for IC50: decrease in canonical junction mRNA; for AC50: increase in alternative junction mRNA
How it was run: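 Splice switching was scored by qPCR detection of the new alternative-exon junction (AJ) alongside the canonical junction (CJ). Cell lines A673 or K562 received compound 24 h, top dose 10 uM final.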

| IC50 [1] [µM] | IC50 [2] [µM] | Compound | AC50 [2] [µM] |
| --- | --- | --- | --- |
| > 10 | < 0.1 | CNC1CCN(c2ccc(C(=O)Nc3cc(F)c4nc(C)cn4c3)c3nnccc23)C1 (centres unmarked) [Compound 231, N-{8-fluoro-2-methylimidazo[1,2-a]pyridin-6-yl}-5-[3-(methylamino)pyrrolidin-1-yl] cinnoline-8-carboxamide] | < 0.1 |
| 1 to 10 | 0.1 to 1 | COCCOc1ccc2c(N3C[C@@H](C)N[C@@H](C)C3)ccc(C(=O)Nc3cc(F)c4nc(C)cn4c3)c2n1 [Compound 232, 5-[(3R,5S)-3,5-dimethylpiperazin-1-yl]-N-{8-fluoro-2-methylimidazo[1,2-a]pyridin-6-yl}-2-(2-methoxyethoxy)quinoline-8-carboxamide] | 0.1 to 1 |
| 1 to 10 | 0.1 to 1 | CCNC1CCN(c2ccc(C(=O)Nc3cc(F)c4nc(C)cn4c3)c3nc(OCCOC)ccc23)CC1 [Compound 233, 5-[4-(ethylamino)piperidin-1-yl]-N-{8-fluoro-2-methylimidazo[1,2-a]pyridin-6-yl}-2-(2-methoxyethoxy)quinoline-8-carboxamide] | 0.1 to 1 |

The next lines start with the compound.

| Compound | IC50 [1] [µM] | IC50 [2] [µM] | AC50 [2] [µM] |
| --- | --- | --- | --- |
| CNC1CCN(c2ccc(C(=O)Nc3cc(F)c4nc(C)cn4c3)c3ncc(OC)nc23)C1 (stereo in doubt) [Compound 227, (R)—N-(8-fluoro-2-methylimidazo[1,2-a]pyridin-6-yl)-2-methoxy-8-(3-(methylamino)pyrrolidin-1-yl)quinoxaline-5-carboxamide 2,2,2-trifluoroacetate] | > 10 | 1 to 10 | 1 to 10 |
| Cc1cn2cc(NC(=O)c3ccc(N4CCC(NC(C)(C)C)C4)c4ccnnc34)cc(F)c2n1 (centres unmarked) [Compound 109] | – | 1 to 10 | 1 to 10 |
| Cc1cnc2c(C(=O)Nc3cc(F)c4nc(C)cn4c3)ccc(N3C[C@@H](C)N[C@@H](C)C3)c2n1 [Compound 217, 8-((3R,5S)-3,5-dimethylpiperazin-1-yl)-N-{8-fluoro-2-methylimidazo[1,2-a]pyridin-6-yl}-2-methylquinoxaline-5-carboxamide] | 0.1 to 1 | < 0.1 | < 0.1 |
| CCNC1CCN(c2ccc(C(=O)Nc3cc(F)c4nc(C)cn4c3)c3nc(C)ccc23)CC1 [Compound 228, 5-[4-(ethylamino)piperidin-1-yl]-N-{8-fluoro-2-methylimidazo[1,2-a]pyridin-6-yl}-2-methylquinoline-8-carboxamide] | 0.1 to 1 | < 0.1 | 0.1 to 1 |
| COCCOc1ccc2c(N3CCC(N(C)C)CC3)ccc(C(=O)Nc3cc(F)c4nc(C)cn4c3)c2n1 [Compound 229, 5-[4-(dimethylamino)piperidin-1-yl]-N-{8-fluoro-2-methylimidazo[1,2-a]pyridin-6-yl}-2-(2-methoxyethoxy)quinoline-8-carboxamide] | > 10 | 0.1 to 1 | < 0.1 |
| Cc1cn2cc(NCc3ccc(N4CCNCC4)c4ccnnc34)cc(F)c2n1 [Compound 230, 8-fluoro-2-methyl-N-{[5-(piperazin-1-yl)cinnolin-8-yl]methyl}imidazo[1,2-a]pyridin-6-amine] | > 10 | > 10 | > 10 |
